Measurements reported in PubChem BioAssay AID330 (DTP/NCI, 2004).
Values joined by “and” are separate entries in the source; they are usually repeats but may differ in a detail not shown here. Identical values can stand only once. Toxic doses and inconclusive results are not listed. How the source made its calls: active means survival T/C of 150% or more; inactive means T/C below 125% in these data.

Test system: P388 leukemia ip, CD2F1 mice, survival T/C
Test: NCI In Vivo Anticancer Drug Screen. Data for tumor model P388 Leukemia (intraperitoneal) in CD2F1 (CDF1) mice
Conditions: endpoint: median survival time, higher = longer survival
Procedure, shortened: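 Mice carrying the transplanted tumor received test compound or vehicle. Survival was recorded in each group, and the value is the treated-group measurement divided by that of the vehicle-treated control group.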

[1] = dose: 50.0 mg/kg/injection, schedule: Q01DX009 (ip), vehicle: saline with Tween-80
[2] = dose: 100.0 mg/kg/injection, schedule: Q01DX009 (ip), vehicle: saline with Tween-80
[3] = dose: 50.0 mg/kg/injection, schedule: Q04DX002 (ip), vehicle: saline with Tween-80
[4] = dose: 100.0 mg/kg/injection, schedule: Q04DX002 (ip), vehicle: saline with Tween-80
[5] = dose: 200.0 mg/kg/injection, schedule: Q04DX002 (ip), vehicle: saline with Tween-80
[6] = dose: 50.0 mg/kg/injection, schedule: Q01DX009 (ip), vehicle: saline
[7] = dose: 100.0 mg/kg/injection, schedule: Q01DX009 (ip), vehicle: saline
[8] = dose: 200.0 mg/kg/injection, schedule: Q01DX009 (ip), vehicle: saline
[9] = dose: 25.0 mg/kg/injection, schedule: Q04DX003 (ip), vehicle: saline
[10] = dose: 60.0 mg/kg/injection, schedule: Q01DX005 (ip), vehicle: saline
[11] = dose: 120.0 mg/kg/injection, schedule: Q01DX005 (ip), vehicle: saline
[12] = dose: 240.0 mg/kg/injection, schedule: Q01DX005 (ip), vehicle: saline
[13] = dose: 100.0 mg/kg/injection, schedule: Q01DX001 (ip), vehicle: saline with Tween-80
[14] = dose: 200.0 mg/kg/injection, schedule: Q01DX001 (ip), vehicle: saline with Tween-80

Measured: T/C

O=c1[nH]nnc2c1ncn2C1OC(CO)C(O)C1O (configuration not stated)
inactive: dose: 12.5 mg/kg/injection, schedule: Q01DX001 (ip), vehicle: saline 99 % of control | dose: 25.0 mg/kg/injection, schedule: Q01DX001 (ip), vehicle: saline 106 % of control | dose: 50.0 mg/kg/injection, schedule: Q01DX001 (ip), vehicle: saline 100 % of control | dose: 100.0 mg/kg/injection, schedule: Q01DX001 (ip), vehicle: saline 99 % of control

Cc1cc(=O)n2c(n1)Nc1ccc(Cl)cc1C2
inactive: [1] 100 % of control | [2] 98 % of control

C=CCOC1CC(C)(O)Cc2cc3c(c(O)c21)C(=O)c1c(O)cc2c(c1C3=O)OC1OC2(C)C(O)C(N(C)C)C1O (configuration not stated)
inactive: dose: 1.25 mg/kg/injection, schedule: Q01DX009 (ip), vehicle: other 114 % of control | dose: 2.5 mg/kg/injection, schedule: Q01DX009 (ip), vehicle: other 120 % of control | dose: 10.0 mg/kg/injection, schedule: Q01DX009 (ip), vehicle: other 123 % of control

CCN(CC)CCCC(C)NC(=O)c1ccc2c(c1O)C(=O)c1ccccc1C2=O (configuration not stated)
inactive: dose: 1.25 mg/kg/injection, schedule: Q01DX009 (ip), vehicle: water 100 % of control and 102 % of control | dose: 2.5 mg/kg/injection, schedule: Q01DX009 (ip), vehicle: water 101 % of control and 105 % of control | dose: 5.0 mg/kg/injection, schedule: Q01DX009 (ip), vehicle: water 106 % of control and 108 % of control | dose: 10.0 mg/kg/injection, schedule: Q01DX009 (ip), vehicle: water 99 % of control and 101 % of control and 94 % of control | dose: 20.0 mg/kg/injection, schedule: Q01DX009 (ip), vehicle: water 99 % of control and 101 % of control

O=C(OC1CC2CCC(C1)S2)c1ccco1 (configuration not stated)
inactive: [3] 109 % of control | [4] 109 % of control | [5] 110 % of control

CC1=NCc2nn(C)nc2N1
inactive: [6] 100 % of control | [7] 100 % of control | [8] 97 % of control

CCOC(=O)c1ccc(N2C(=O)C=CC2=O)cc1
inactive: dose: 3.12 mg/kg/injection, schedule: Q01DX009 (ip), vehicle: saline 98 % of control | dose: 6.25 mg/kg/injection, schedule: Q01DX009 (ip), vehicle: saline 98 % of control | dose: 12.5 mg/kg/injection, schedule: Q01DX009 (ip), vehicle: saline 96 % of control

Cc1cc(=O)[nH][nH]1
inactive: [4] 97 % of control | [5] 100 % of control | dose: 400.0 mg/kg/injection, schedule: Q04DX002 (ip), vehicle: saline with Tween-80 94 % of control

COC(=O)CCC(=O)C(C#N)c1ccc(CC#N)cc1 (configuration not stated)
inactive: dose: 12.5 mg/kg/injection, schedule: Q01DX005 (ip), vehicle: saline with Tween-80 96 % of control | dose: 25.0 mg/kg/injection, schedule: Q01DX005 (ip), vehicle: saline with Tween-80 98 % of control | dose: 50.0 mg/kg/injection, schedule: Q01DX005 (ip), vehicle: saline with Tween-80 102 % of control and 95 % of control

O=C(O)c1cc2ccc(Br)cc2[se]1
inactive: [6] 110 % of control | [7] 99 % of control | [8] 94 % of control

N#CCC1(C#N)CCC(OCc2ccccc2)CC1 (configuration not stated)
inactive: [6] 100 % of control and 99 % of control | [7] 100 % of control | [8] 102 % of control and 101 % of control

COc1ccc2cc(N3CCCC3)ccc2c1
inactive: [9] 105 % of control | dose: 50.0 mg/kg/injection, schedule: Q04DX003 (ip), vehicle: saline 96 % of control | dose: 100.0 mg/kg/injection, schedule: Q04DX003 (ip), vehicle: saline 100 % of control and 104 % of control | dose: 400.0 mg/kg/injection, schedule: Q04DX003 (ip), vehicle: saline 107 % of control

CC(=O)N1CN(C(C)=O)CN(C(C)=O)C1
inactive: [10] 94 % of control | [11] 94 % of control | [12] 100 % of control

Nc1nnc(-c2ccccc2)nn1
inactive: dose: 50.0 mg/kg/injection, schedule: Q01DX005 (ip), vehicle: Klucel + Tween-80 91 % of control | dose: 100.0 mg/kg/injection, schedule: Q01DX005 (ip), vehicle: Klucel + Tween-80 95 % of control | dose: 200.0 mg/kg/injection, schedule: Q01DX005 (ip), vehicle: Klucel + Tween-80 100 % of control

C=CCSc1nc2ccc(NC(C)=O)cc2s1
inactive: dose: 6.25 mg/kg/injection, schedule: Q01DX009 (ip), vehicle: Klucel (hydroxypropylcellulose) (HPC) 104 % of control | dose: 12.5 mg/kg/injection, schedule: Q01DX009 (ip), vehicle: Klucel (hydroxypropylcellulose) (HPC) 108 % of control | dose: 25.0 mg/kg/injection, schedule: Q01DX009 (ip), vehicle: Klucel (hydroxypropylcellulose) (HPC) 94 % of control

CCCCCCCCCCCCCCCC[N+]1(CC)CCCCC1
inactive: dose: 0.59 mg/kg/injection, schedule: Q01DX009 (ip), vehicle: saline 121 % of control | dose: 0.78 mg/kg/injection, schedule: Q01DX009 (ip), vehicle: saline 89 % of control

C1CC[N-]CC1.C1CC[N-]CC1.C1CC[N-]CC1.C1CC[N-]CC1.O=S(=O)(O)O.[Cu+2]
inactive: dose: 10.0 mg/kg/injection, schedule: Q04DX002 (ip), vehicle: saline 100 % of control | dose: 20.0 mg/kg/injection, schedule: Q04DX002 (ip), vehicle: saline 110 % of control

CC1(C)CC(=O)C=C(NCc2ccccc2)C1
inactive: dose: 25.0 mg/kg/injection, schedule: Q01DX009 (ip), vehicle: saline with Tween-80 104 % of control | [1] 104 % of control and 90 % of control | [2] 101 % of control and 96 % of control | dose: 200.0 mg/kg/injection, schedule: Q01DX009 (ip), vehicle: saline with Tween-80 99 % of control and 91 % of control

CSC1SC(C#N)=C(N)C1[n+]1ccccc1 (configuration not stated)
inactive: dose: 25.0 mg/kg/injection, schedule: Q04DX002 (ip), vehicle: saline with Tween-80 105 % of control | [3] 105 % of control | [4] 104 % of control

COc1cccc2sc(-n3c(C)nc4ccccc4c3=O)nc12
inactive: dose: 60.0 mg/kg/injection, schedule: Q01DX005 (ip), vehicle: Klucel (hydroxypropylcellulose) (HPC) 95 % of control | dose: 120.0 mg/kg/injection, schedule: Q01DX005 (ip), vehicle: Klucel (hydroxypropylcellulose) (HPC) 87 % of control | dose: 240.0 mg/kg/injection, schedule: Q01DX005 (ip), vehicle: Klucel (hydroxypropylcellulose) (HPC) 87 % of control

O=C(NC(=S)c1ccc(Br)cc1)NS(=O)(=O)c1ccc(Cl)cc1
inactive: [13] 96 % of control | [14] 92 % of control | dose: 400.0 mg/kg/injection, schedule: Q01DX001 (ip), vehicle: saline with Tween-80 102 % of control

CCC(c1ccc(OC)cc1)C(NCC(=O)NNC(=S)Nc1cccc(C)c1)c1ccc(OC)cc1 (configuration not stated)
inactive: [13] 90 % of control | [14] 96 % of control

CC(=O)OC(C(=O)CCl)C(OC(C)=O)C(OC(C)=O)C(=O)CCl (configuration not stated)
inactive: dose: 12.5 mg/kg/injection, schedule: Q01DX009 (ip), vehicle: distilled water + Tween-80 + alcohol 93 % of control | dose: 25.0 mg/kg/injection, schedule: Q01DX009 (ip), vehicle: distilled water + Tween-80 + alcohol 101 % of control | dose: 50.0 mg/kg/injection, schedule: Q01DX009 (ip), vehicle: distilled water + Tween-80 + alcohol 100 % of control

N#CC(c1ccccc1)(N1CCOCC1)N1CCOCC1
inactive: dose: 6.25 mg/kg/injection, schedule: Q04DX003 (ip), vehicle: saline 101 % of control and 97 % of control | dose: 12.5 mg/kg/injection, schedule: Q04DX003 (ip), vehicle: saline 100 % of control and 101 % of control | [9] 100 % of control and 101 % of control (2×) | dose: 100.0 mg/kg/injection, schedule: Q04DX003 (ip), vehicle: saline with Tween-80 100 % of control

CC1=CC(c2ccccc2)=CS(=O)(N(C)C)=C1 (configuration not stated)
inactive: [10] 100 % of control | [11] 104 % of control | [12] 104 % of control
